Laboratory results reported in US20080045507A1, “SUBSTITUTED BENZAMIDE MODULATORS OF THE HISTAMINE H3 RECEPTOR” (priority 2006, published 2008).

What was measured:
human H3 receptor = molecular target: T1, human H3 receptor (Homo sapiens, UniProt Q9Y5N1); assay: H3 receptor binding, cloned human H3 receptor stably expressed in SK-N-MC cells; settings: average of results
T1 construct: expressed in transfected cells
Description: (§1) Binding of compounds to the cloned human and rat H3 receptors, stably expressed in SK-N-MC cells, was performed as described by Barbier, A. J. et al. (Br. J. Pharmacol. 2004, 143(5), 649-661). Data for compounds tested in these assays are presented in Table 1 (human) and Table 2 (rat), as an average of the results obtained.

rat H3 receptor = molecular target: T2, rat H3 receptor (Rattus norvegicus, UniProt Q9QYN8); assay: H3 receptor binding, cloned rat H3 receptor stably expressed in SK-N-MC cells; settings: average of results
T2 construct: expressed in transfected cells
Description: as §1

T1 sequence (Q9Y5N1 whole entry): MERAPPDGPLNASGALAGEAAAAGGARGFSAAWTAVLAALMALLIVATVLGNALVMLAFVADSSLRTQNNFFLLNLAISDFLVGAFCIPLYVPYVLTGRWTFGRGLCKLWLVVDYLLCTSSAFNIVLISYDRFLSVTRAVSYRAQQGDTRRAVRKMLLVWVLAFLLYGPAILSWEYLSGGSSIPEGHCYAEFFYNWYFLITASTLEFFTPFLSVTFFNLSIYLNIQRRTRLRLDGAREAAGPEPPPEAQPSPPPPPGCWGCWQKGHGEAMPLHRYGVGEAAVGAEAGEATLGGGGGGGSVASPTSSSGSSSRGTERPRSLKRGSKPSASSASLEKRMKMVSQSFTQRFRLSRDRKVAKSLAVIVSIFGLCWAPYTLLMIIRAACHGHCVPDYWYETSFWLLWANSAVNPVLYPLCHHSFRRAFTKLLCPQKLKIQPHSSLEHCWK
T2 sequence (Q9QYN8 whole entry): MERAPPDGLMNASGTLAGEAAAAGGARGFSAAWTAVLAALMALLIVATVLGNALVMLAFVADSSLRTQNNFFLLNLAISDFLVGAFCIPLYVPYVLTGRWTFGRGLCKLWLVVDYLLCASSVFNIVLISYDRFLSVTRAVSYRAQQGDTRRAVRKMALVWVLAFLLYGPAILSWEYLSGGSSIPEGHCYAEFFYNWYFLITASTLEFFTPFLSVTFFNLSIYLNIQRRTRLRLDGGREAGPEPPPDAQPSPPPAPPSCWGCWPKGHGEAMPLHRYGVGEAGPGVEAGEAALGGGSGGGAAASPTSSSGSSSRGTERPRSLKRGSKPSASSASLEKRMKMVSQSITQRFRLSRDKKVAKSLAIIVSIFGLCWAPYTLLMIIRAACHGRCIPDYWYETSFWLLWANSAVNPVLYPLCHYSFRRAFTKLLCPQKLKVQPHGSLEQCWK

| Compound | Ki (human H3 receptor) [nM] | Ki (rat H3 receptor) [nM] |
| --- | --- | --- |
| CC(C)N1CCN(C(=O)c2ccc(C(O)C3CCCCC3)cc2)CC1 (stereo not drawn) [Example 1, [4-(Cyclohexyl-hydroxy-methyl)-phenyl]-(4-isopropyl-piperazin-1-yl)-methanone] | 7 | – |
| CCC(O)c1ccc(C(=O)N2CCN(C(C)C)CC2)cc1 (stereo not drawn) [Example 2, [4-(1-Hydroxy-propyl)-phenyl]-(4-isopropyl-piperazin-1-yl)-methanone] | 32 | – |
| CC(C)N1CCN(C(=O)c2ccc(C(O)c3ccccc3)cc2)CC1 (stereo not drawn) [Example 3, [4-(Hydroxy-phenyl-methyl)-phenyl]-(4-isopropyl-piperazin-1-yl)-methanone] | 14 | – |
| CC(O)c1ccc(C(=O)N2CCN(C(C)C)CC2)cc1 (stereo not drawn) [Example 4, [4-(1-Hydroxy-ethyl)-phenyl]-(4-isopropyl-piperazin-1-yl)-methanone] | 58 | – |
| CC(C)C(O)c1ccc(C(=O)N2CCN(C(C)C)CC2)cc1 (stereo not drawn) [Example 5, [4-(1-Hydroxy-2-methyl-propyl)-phenyl]-(4-isopropyl-piperazin-1-yl)-methanone] | 6 | – |
| CC(C)N1CCCN(C(=O)c2ccc(CO)cc2)CC1 [Example 8, (4-Hydroxymethyl-phenyl)-(4-isopropyl-[1,4]diazepan-1-yl)-methanone] | 31 | – |
| CC(C)N1CCCN(C(=O)c2ccc(C(=O)C3CCCCC3)cc2)CC1 [Example 9, (4-Cyclohexanecarbonyl-phenyl)-(4-isopropyl-[1,4]diazepan-1-yl)-methanone] | 3 | – |
| CCC(O)c1ccc(C(=O)N2CCCN(C(C)C)CC2)cc1 (stereo not drawn) [Example 10, [4-(1-Hydroxy-propyl)-phenyl]-(4-isopropyl-[1,4]diazepan-1-yl)-methanone] | 9 | 509 |
| CC(O)c1ccc(C(=O)N2CCCN(C(C)C)CC2)cc1 (stereo not drawn) [Example 12, [4-(1-Hydroxy-ethyl)-phenyl]-(4-isopropyl-[1,4]diazepan-1-yl)-methanone] | 17 | – |
| CC(C)C(O)c1ccc(C(=O)N2CCCN(C(C)C)CC2)cc1 (stereo not drawn) [Example 13, [4-(1-Hydroxy-2-methyl-propyl)-phenyl]-(4-isopropyl-[1,4]diazepan-1-yl)-methanone] | 6 | – |
| O=C(c1ccc(C(O)c2ccccc2)cc1)N1CCN(C2CCC2)CC1 (stereo not drawn) [Example 14, (4-cyclobutyl-piperazin-1-yl)-[4-(hydroxy-phenyl-methyl)-phenyl]-methanone] | 4 | – |
| CCC(O)c1ccc(C(=O)N2CCN(C3CCC3)CC2)cc1 (stereo not drawn) [Example 15, (4-Cyclobutyl-piperazin-1-yl)-[4-(1-hydroxy-propyl)-phenyl]-methanone] | 12 | – |
| CC(C)C(O)c1ccc(C(=O)N2CCN(C3CCC3)CC2)cc1 (stereo not drawn) [Example 16, (4-Cyclobutyl-piperazin-1-yl)-[4-(1-hydroxy-2-methyl-propyl)-phenyl]-methanone] | 15 | – |
| O=C(c1ccc(C(O)C2CCCCC2)cc1)N1CCN(C2CCC2)CC1 (stereo not drawn) [Example 17, (4-Cyclobutyl-piperazin-1-yl)-[4-(cyclohexyl-hydroxy-methyl)-phenyl]-methanone] | 4 | – |
| O=C(c1ccc(CO)cc1)N1CCN(C2CCC2)CC1 [Example 18, (4-Cyclobutyl-piperazin-1-yl)-(4-hydroxymethyl-phenyl)-methanone] | 43 | – |
| O=C(c1ccc(C(O)C2CCCCC2)cc1)N1CCCN(C2CCC2)CC1 (stereo not drawn) [Example 20, (4-Cyclobutyl-[1,4]diazepan-1-yl)-[4-(cyclohexyl-hydroxy-methyl)-phenyl]-methanone] | 1 | – |
| O=C(c1ccc(C(O)c2ccccc2)cc1)N1CCCN(C2CCC2)CC1 (stereo not drawn) [Example 21, (4-Cyclobutyl-[1,4]diazepan-1-yl)-[4-(hydroxy-phenyl-methyl)-phenyl]-methanone] | 1 | – |
| CC(C)C(O)c1ccc(C(=O)N2CCCN(C3CCC3)CC2)cc1 (stereo not drawn) [Example 22, (4-Cyclobutyl-[1,4]diazepan-1-yl)-[4-(1-hydroxy-2-methyl-propyl)-phenyl]-methanone] | 1 | – |

| Compound | Ki (human H3 receptor) [nM] | Ki (rat H3 receptor) [nM] |
| --- | --- | --- |
| O=C(c1ccc(CO)cc1)N1CCCN(C2CCC2)CC1 [Example 23, (4-Cyclobutyl-[1,4]diazepan-1-yl)-(4-hydroxymethyl-phenyl)-methanone] | 2 | – |
| O=C(c1ccc(C(O)C2CCCCC2)cc1)N1CCN(C2CC2)CC1 (stereo not drawn) [Example 24, [4-(Cyclohexyl-hydroxy-methyl)-phenyl]-(4-cyclopropyl-piperazin-1-yl)-methanone] | 19 | – |
| O=C(c1ccc(C(O)c2ccccc2)cc1)N1CCN(C2CC2)CC1 (stereo not drawn) [Example 25, (4-Cyclopropyl-piperazin-1-yl)-[4-(hydroxy-phenyl-methyl)-phenyl]-methanone] | 59 | – |
| CC(C)C(O)c1ccc(C(=O)N2CCN(C3CC3)CC2)cc1 (stereo not drawn) [Example 26, (4-Cyclopropyl-piperazin-1-yl)-[4-(1-hydroxy-2-methyl-propyl)-phenyl]-methanone] | 84 | – |
| O=C(c1ccc(CO)cc1)N1CCCN(C2CC2)CC1 [Example 28, (4-Cyclopropyl-[1,4]diazepan-1-yl)-(4-hydroxymethyl-phenyl)-methanone] | 20 | – |
| CCc1ccc(C(=O)N2CCN(C3CCC3)CC2)cc1 [Example 34, (4-Cyclobutyl-piperazin-1-yl)-(4-ethyl-phenyl)-methanone] | 28 | – |
| CC(C)c1ccc(C(=O)N2CCN(C3CCC3)CC2)cc1 [Example 35, (4-Cyclobutyl-piperazin-1-yl)-(4-isopropyl-phenyl)-methanone] | 11 | – |
| O=C(c1ccc(Cc2ccccc2)cc1)N1CCN(C2CCC2)CC1 [Example 37, (4-Benzyl-phenyl)-(4-cyclobutyl-piperazin-1-yl)-methanone] | 7 | – |
| CCCc1ccc(C(=O)N2CCN(C3CCC3)CC2)cc1 [Example 38, (4-Cyclobutyl-piperazin-1-yl)-(4-propyl-phenyl)-methanone] | 31 | – |
| CCCCc1ccc(C(=O)N2CCN(C3CCC3)CC2)cc1 [Example 39, (4-Butyl-phenyl)-(4-cyclobutyl-piperazin-1-yl)-methanone] | 24 | – |
| CCCCCc1ccc(C(=O)N2CCN(C3CCC3)CC2)cc1 [Example 40, (4-Cyclobutyl-piperazin-1-yl)-(4-pentyl-phenyl)-methanone] | 17 | – |
| CC(C)(O)c1ccc(C(=O)N2CCN(C3CCC3)CC2)cc1 [Example 41, (4-Cyclobutyl-piperazin-1-yl)-[4-(1-hydroxy-1-methyl-ethyl)-phenyl]-methanone] | 32 | – |
| O=C(c1ccc(C2(O)CCCCC2)cc1)N1CCN(C2CCC2)CC1 [Example 42, (4-Cyclobutyl-piperazin-1-yl)-[4-(1-hydroxy-cyclohexyl)-phenyl]-methanone] | 7 | – |
| CCC(O)c1ccc(C(=O)N2CCN(C3CC3)CC2)cc1 (stereo not drawn) [Example 48, (4-Cyclopropyl-piperazin-1-yl)-[4-(1-hydroxy-propyl)-phenyl]-methanone] | 221 | – |
| O=C(c1ccc(CO)cc1)N1CCN(C2CC2)CC1 [Example 49, (4-Cyclopropyl-piperazin-1-yl)-(4-hydroxymethyl-phenyl)-methanone] | 586 | – |
| CCCCN1CCN(C(=O)c2ccc(CO)cc2)CC1 [Example 50, (4-Butyl-piperazin-1-yl)-(4-hydroxymethyl-phenyl)-methanone] | 55 | – |
| CCC(C)N1CCN(C(=O)c2ccc(CO)cc2)CC1 (stereo not drawn) [Example 51, (4-sec-Butyl-piperazin-1-yl)-(4-hydroxymethyl-phenyl)-methanone] | 530 | – |
